Experimental data as given in ChEMBL document CHEMBL1141379, “Selective inhibitory activity against MAO and molecular modeling studies of 2-thiazolylhydrazone derivatives” (J Med Chem, 2007).
pKi: −log10 of the molar value.

These compounds were tested against T1, Amine oxidase [flavin-containing] A (Bos taurus, UniProt P21398) (assay: Inhibition of bovine brain mitochondria MAOA).
T1 sequence (P21398 whole entry): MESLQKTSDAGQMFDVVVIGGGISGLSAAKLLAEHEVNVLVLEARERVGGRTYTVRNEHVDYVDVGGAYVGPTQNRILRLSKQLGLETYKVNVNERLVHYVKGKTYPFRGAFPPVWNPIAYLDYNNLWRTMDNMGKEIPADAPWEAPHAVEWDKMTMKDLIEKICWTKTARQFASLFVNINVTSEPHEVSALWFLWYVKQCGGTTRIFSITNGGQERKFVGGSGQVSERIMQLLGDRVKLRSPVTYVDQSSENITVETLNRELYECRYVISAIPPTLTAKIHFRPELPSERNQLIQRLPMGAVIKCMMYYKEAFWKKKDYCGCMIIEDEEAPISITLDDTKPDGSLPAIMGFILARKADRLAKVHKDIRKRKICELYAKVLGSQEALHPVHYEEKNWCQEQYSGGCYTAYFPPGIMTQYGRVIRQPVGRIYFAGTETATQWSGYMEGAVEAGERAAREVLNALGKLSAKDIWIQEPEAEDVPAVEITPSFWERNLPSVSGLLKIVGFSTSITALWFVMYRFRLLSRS

Row | SMILES | pKi
1 | Cc1csc(N/N=C/c2ccccc2C)n1 | 7.45
2 | COc1ccc(/C=N/Nc2nc(C)cs2)cc1OC | 7.88
3 | COc1ccc(/C=N/Nc2nc(-c3ccccc3)cs2)cc1OC | 7.52
4 | Cc1csc(N/N=C/c2ccc(Cl)cc2)n1 | 7.42
5 | Cc1csc(N/N=C/c2ccccc2)n1 | 8.14

The remaining compounds from weak to strong by pKi, led by results:

Row | pKi | SMILES
6 | 5.92 | C(=N\Nc1nc(-c2ccccc2)cs1)/c1ccccc1
7 | 7.00 | Clc1ccc(/C=N/Nc2nc(-c3ccccc3)cs2)cc1
8 | 7.03 | Clc1ccc(/C=N/Nc2nc(-c3ccccc3)cs2)c(Cl)c1
9 | 7.30 | COc1ccc(/C=N/Nc2nc(-c3ccccc3)cs2)cc1
10 | 7.72 | COc1ccc(/C=N/Nc2nc(C)cs2)cc1
11 | 7.92 | Cc1csc(N/N=C/c2ccc(Cl)cc2Cl)n1
